Experimental data: patent publication US9868748B2, “Thiazolopyrrolidine inhibitors of ROR- γ” (Vitae Pharmaceuticals, Inc., priority 2013, dated 2018)

Key:
[1] = biological target: recombinant RORγ Ligand Binding Domain (LBD) protein (Homo sapiens (Human), UniProt P51449); assay: Radio-Ligand RORγ Binding Assay (Assay 1); settings: competition with 25-hydroxy [26,27-3H]-cholesterol, SPA; Table 8; read-out: RORγ Binding Ki Range*
In short: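 Recombinant human RORγ ligand binding domain (6×His-GST fusion, 24 nM stock) competed with tritiated 25-hydroxycholesterol (8.6 nM stock) in HEPES buffer pH 7.4 with detergents and DTT; poly-Lys YSi SPA beads, room temperature, tritium SPA signal. Four-parameter IC50 from semi-log dilutions, normalised to DMSO and 10 μM T0901317, then Ki via KD equation.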

[2] = biological target: full-length RORγt in Jurkat cells (Homo sapiens (Human), UniProt P51449); assay: RORγt 5xRORE Assay in Jurkat Cells (Assay 2); type: cell-based; settings: Nanoluc luciferase reporter, 16-18 hrs, Table 8, read-out: RORγt5X IC50 Range*
Chain of full-length RORγt in Jurkat cells (P51449 other isoform, or with tags, fused parts or gaps): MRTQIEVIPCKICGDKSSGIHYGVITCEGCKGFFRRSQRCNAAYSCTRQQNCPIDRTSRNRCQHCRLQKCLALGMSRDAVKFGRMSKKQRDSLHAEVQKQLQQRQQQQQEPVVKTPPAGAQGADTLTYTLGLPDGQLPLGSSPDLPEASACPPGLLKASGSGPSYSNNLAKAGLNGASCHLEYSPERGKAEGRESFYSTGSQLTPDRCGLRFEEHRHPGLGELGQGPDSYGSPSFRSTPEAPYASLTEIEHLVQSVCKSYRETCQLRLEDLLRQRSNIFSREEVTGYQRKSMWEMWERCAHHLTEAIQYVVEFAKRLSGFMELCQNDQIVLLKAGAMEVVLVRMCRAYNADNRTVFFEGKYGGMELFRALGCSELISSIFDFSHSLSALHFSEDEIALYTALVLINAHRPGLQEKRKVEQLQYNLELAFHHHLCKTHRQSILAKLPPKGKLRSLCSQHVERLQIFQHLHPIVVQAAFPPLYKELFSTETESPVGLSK
In short: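 Inverse agonist activity was read as NanoGlo luminescence from conditioned medium after 16–18 h compound exposure (37 °C, 0.1% DMSO final). The cells were Jurkat, transiently transfected with RORγt and a secNluc reporter carrying five RORE repeats, seeded 80,000 per well in delipidated-serum RPMI.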

Chain of recombinant RORγ Ligand Binding Domain (LBD) protein (P51449 269-508): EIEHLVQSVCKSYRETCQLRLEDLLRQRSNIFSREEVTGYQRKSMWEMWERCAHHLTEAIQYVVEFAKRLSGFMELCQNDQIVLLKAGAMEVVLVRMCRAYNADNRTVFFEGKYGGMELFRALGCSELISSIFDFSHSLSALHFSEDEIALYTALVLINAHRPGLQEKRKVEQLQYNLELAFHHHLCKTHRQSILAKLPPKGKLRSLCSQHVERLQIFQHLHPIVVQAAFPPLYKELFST

CCS(=O)(=O)c1ccc(CC(=O)Nc2nc3c(s2)CN(C[C@@H]2CN(C(=O)OC(C)(C)C)CCO2)[C@H]3C(C)C)cc1 [I-A43]
Ki [1]: < 100 nM | IC50 [2]: < 100 nM

CCS(=O)(=O)c1ccc(CC(=O)Nc2nc3c(s2)CN(C[C@H]2CC[C@H](C(=O)OC)CC2)[C@H]3C(C)C)cc1 [I-A44]
Ki [1]: < 100 nM | IC50 [2]: < 100 nM

CCS(=O)(=O)c1ccc(CC(=O)Nc2nc3c(s2)CN(Cc2ccc(C(F)(F)F)cc2C#N)[C@H]3C(C)C)cc1 [I-A45]
Ki [1]: < 100 nM | IC50 [2]: < 100 nM

CCS(=O)(=O)c1ccc(CC(=O)Nc2nc3c(s2)CN(Cc2ncc(C#N)cc2F)[C@H]3C(C)C)cc1 [I-A46]
Ki [1]: < 100 nM | IC50 [2]: < 100 nM

CCS(=O)(=O)c1ccc(CC(=O)Nc2nc3c(s2)CN([C@H](C)c2ccc(Cl)cn2)[C@H]3C(C)C)cc1 [I-A47]
Ki [1]: < 100 nM | IC50 [2]: < 100 nM

CCS(=O)(=O)c1ccc(CC(=O)Nc2nc3c(s2)CN([C@@H](C)c2ccc(Cl)cn2)[C@H]3C(C)C)cc1 [I-A48]
Ki [1]: < 100 nM | IC50 [2]: < 100 nM

CCS(=O)(=O)c1ccc(CC(=O)Nc2nc3c(s2)CN(Cc2cc(C)c(C#N)cn2)[C@H]3C(C)C)cc1 [I-A49]
Ki [1]: < 100 nM | IC50 [2]: < 100 nM

CCS(=O)(=O)c1ccc(CC(=O)Nc2nc3c(s2)CN(Cc2ccc(C#N)c(C)n2)[C@H]3C(C)C)cc1 [I-A50]
Ki [1]: < 100 nM | IC50 [2]: < 100 nM

CCS(=O)(=O)c1ccc(CC(=O)Nc2nc3c(s2)CN(Cc2ccc(C#N)c(OC)n2)[C@H]3C(C)C)cc1 [I-A51]
Ki [1]: < 100 nM | IC50 [2]: < 100 nM

CCS(=O)(=O)c1ccc(CC(=O)Nc2nc3c(s2)CN([C@H](C)c2ncc(Cl)cc2F)[C@H]3C(C)C)cc1 [I-A53]
Ki [1]: < 100 nM | IC50 [2]: < 100 nM

CCS(=O)(=O)c1ccc(CC(=O)Nc2nc3c(s2)CN(Cc2ccc(OC(F)F)cn2)[C@H]3C(C)C)cc1 [I-A54]
Ki [1]: < 100 nM | IC50 [2]: < 100 nM

CCS(=O)(=O)c1ccc(CC(=O)Nc2nc3c(s2)CN(Cc2cnc(C(F)(F)F)nc2)[C@H]3C(C)C)cc1 [I-A58]
Ki [1]: < 100 nM | IC50 [2]: < 100 nM

CCS(=O)(=O)c1ccc(CC(=O)Nc2nc3c(s2)CN(Cc2ccc(C4CC4)cc2)[C@H]3C(C)C)cc1 [I-A59]
Ki [1]: < 100 nM | IC50 [2]: < 100 nM

CCS(=O)(=O)c1ccc(CC(=O)Nc2nc3c(s2)CN(Cc2ccc(C(=O)OC)cc2)[C@H]3C(C)C)cc1 [I-A60]
Ki [1]: < 100 nM | IC50 [2]: < 100 nM

CCS(=O)(=O)c1ccc(CC(=O)Nc2nc3c(s2)CN(Cc2ccc(C(F)F)cc2)[C@H]3C(C)C)cc1 [I-A61]
Ki [1]: < 100 nM | IC50 [2]: < 100 nM

CCS(=O)(=O)c1ccc(CC(=O)Nc2nc3c(s2)CN(Cc2ccc(C(F)(F)F)nc2)[C@H]3C(C)C)cc1 [I-A62]
Ki [1]: < 100 nM | IC50 [2]: < 100 nM

CCc1ccc(CN2Cc3sc(NC(=O)Cc4ccc(S(=O)(=O)CC)cc4)nc3[C@@H]2C(C)C)cc1 [I-A63]
Ki [1]: < 100 nM | IC50 [2]: < 100 nM

CCS(=O)(=O)c1ccc(CC(=O)Nc2nc3c(s2)CN(Cc2ccc(C)cc2)[C@H]3C(C)C)cc1 [I-A64]
Ki [1]: < 100 nM | IC50 [2]: < 100 nM

CC(C)[C@H]1c2nc(NC(=O)Cc3ccc(S(C)(=O)=O)cc3)sc2CN1Cc1ccc(Cl)cc1 [I-B1, (S)—N-(5-(4-chlorobenzyl)-4-isopropyl-5,6-dihydro-4H-pyrrolo[3,4-d]thiazol-2-yl)-2-(4-(methylsulfonyl)phenyl)acetamide]
Ki [1]: < 100 nM | IC50 [2]: < 100 nM

CC(C)[C@H]1c2nc(NC(=O)Cc3ccc(S(C)(=O)=O)cc3)sc2CN1Cc1ccc(C(F)(F)F)cn1 [I-B4]
Ki [1]: < 100 nM | IC50 [2]: < 100 nM

CC(C)[C@H]1c2nc(NC(=O)Cc3ccc(S(C)(=O)=O)cc3)sc2CN1Cc1ccc(C(F)(F)F)nc1 [I-B5]
Ki [1]: < 100 nM | IC50 [2]: < 100 nM

Cc1cc(CN2Cc3sc(NC(=O)Cc4ccc(S(C)(=O)=O)cc4)nc3[C@@H]2C(C)C)ccc1C#N [I-B7]
Ki [1]: < 100 nM | IC50 [2]: < 100 nM

CC(C)[C@H]1c2nc(NC(=O)Cc3ccc(S(C)(=O)=O)cc3)sc2CN1Cc1ccc(C#N)c(Cl)c1 [I-B8]
Ki [1]: < 100 nM | IC50 [2]: < 100 nM

CC(C)[C@H]1c2nc(NC(=O)Cc3ccc(S(C)(=O)=O)cc3)sc2CN1Cc1ccc(-c2nnn(C)n2)cc1 [I-B9]
Ki [1]: < 100 nM | IC50 [2]: < 100 nM

CC(C)[C@H]1c2nc(NC(=O)Cc3ccc(S(C)(=O)=O)cc3)sc2CN1[C@@H](C)c1ccc(C#N)cc1Cl [I-B10]
Ki [1]: < 100 nM | IC50 [2]: < 100 nM

CC(C)[C@H]1c2nc(NC(=O)Cc3ccc(S(C)(=O)=O)cc3)sc2CN1[C@H](C)c1ccc(C#N)c(F)c1 [I-B11]
Ki [1]: < 100 nM | IC50 [2]: < 100 nM

CC(C)[C@H]1c2nc(NC(=O)Cc3ccc(S(C)(=O)=O)cc3)sc2CN1[C@@H](C)c1ccc(C#N)c(F)c1 [I-B12]
Ki [1]: < 100 nM | IC50 [2]: < 100 nM

Cc1nc(C(F)(F)F)ccc1CN1Cc2sc(NC(=O)Cc3ccc(S(C)(=O)=O)cc3)nc2[C@@H]1C(C)C [I-B13]
Ki [1]: < 100 nM | IC50 [2]: < 100 nM

CC(C)[C@H]1c2nc(NC(=O)Cc3ccc(S(C)(=O)=O)cc3)sc2CN1[C@H](C)c1ccc(C#N)cc1 [I-B14]
Ki [1]: < 100 nM | IC50 [2]: < 100 nM

CC(C)[C@H]1c2nc(NC(=O)Cc3ccc(S(C)(=O)=O)cc3)sc2CN1[C@@H](C)c1ccc(C#N)cc1 [I-B15]
Ki [1]: < 100 nM | IC50 [2]: < 100 nM

CC(C)[C@H]1c2nc(NC(=O)Cc3ccc(S(C)(=O)=O)cc3)sc2CN1Cc1ccc(C#N)cc1Cl [I-B16]
Ki [1]: < 100 nM | IC50 [2]: < 100 nM

CC(C)[C@H]1c2nc(NC(=O)Cc3ccc(S(C)(=O)=O)cc3)sc2CN1Cc1ccc(C#N)cc1F [I-B17]
Ki [1]: < 100 nM | IC50 [2]: < 100 nM

CC(C)[C@H]1c2nc(NC(=O)Cc3ccc(S(C)(=O)=O)cc3)sc2CN1Cc1ccc(C#N)cc1 [I-B18]
Ki [1]: < 100 nM | IC50 [2]: < 100 nM

CC(C)[C@H]1c2nc(NC(=O)Cc3ccc(S(C)(=O)=O)cc3)sc2CN1Cc1ccc(C(F)(F)F)cc1 [I-B19]
Ki [1]: < 100 nM | IC50 [2]: < 100 nM

CCS(=O)(=O)c1ccc(CC(=O)Nc2nc3c(s2)CN(Cc2ccc(Cl)cc2)[C@H]3C(C)C)nc1 [I-C1, (S)—N-(5-(4-chlorobenzyl)-4-isopropyl-5,6-dihydro-4H-pyrrolo[3,4-d]thiazol-2-yl)-2-(5-(ethylsulfonyl)pyridin-2-yl)acetamide]
Ki [1]: < 100 nM | IC50 [2]: < 100 nM

CCS(=O)(=O)c1ccc(CC(=O)Nc2nc3c(s2)CN(Cc2ccc(OC(F)F)cc2)[C@H]3C(C)C)nc1 [I-C2]
Ki [1]: < 100 nM | IC50 [2]: < 100 nM

CCS(=O)(=O)c1ccc(CC(=O)Nc2nc3c(s2)CN(Cc2ccc(C(F)(F)F)cc2)[C@H]3C(C)C)nc1 [I-C4]
Ki [1]: < 100 nM | IC50 [2]: < 100 nM

CCS(=O)(=O)c1ccc(CC(=O)Nc2nc3c(s2)CN(C[C@H]2CC[C@@](C)(OC)CC2)[C@H]3C(C)C)nc1 [I-C6]
Ki [1]: < 100 nM | IC50 [2]: < 100 nM

CCS(=O)(=O)c1ccc(CC(=O)Nc2nc3c(s2)CN(Cc2ccc(-c4ccn(C)c(=O)c4)cc2)[C@H]3C(C)C)nc1 [I-C7]
Ki [1]: < 100 nM | IC50 [2]: < 100 nM

CCS(=O)(=O)c1ccc(CC(=O)Nc2nc3c(s2)CN(C[C@H]2CC[C@@](OC)(C(F)(F)F)CC2)[C@H]3C(C)C)nc1 [I-C8]
Ki [1]: < 100 nM | IC50 [2]: < 100 nM

CCS(=O)(=O)c1ccc(CC(=O)Nc2nc3c(s2)CN(Cc2ccc(-c4nnn(C)n4)cc2)[C@H]3C(C)C)nc1 [I-C9]
Ki [1]: < 100 nM | IC50 [2]: < 100 nM

CCS(=O)(=O)c1ccc(CC(=O)Nc2nc3c(s2)CN(Cc2ccc(C#N)c(Cl)c2)[C@H]3C(C)C)nc1 [I-C10]
Ki [1]: < 100 nM | IC50 [2]: < 100 nM

CCS(=O)(=O)c1ccc(CC(=O)Nc2nc3c(s2)CN(Cc2ccc(C#N)cc2)[C@H]3C(C)C)nc1 [I-C11]
Ki [1]: < 100 nM | IC50 [2]: < 100 nM

CC(C)[C@H]1c2nc(NS(=O)(=O)c3ccc(CC(=O)O)cc3)sc2CN1Cc1ccc(Cl)cc1 [I-D1, (S)-2-(4-(N-(5-(4-chlorobenzyl)-4-isopropyl-5,6-dihydro-4H-pyrrolo[3,4-d]thiazol-2-yl)sulfamoyl)phenyl)acetic acid]
Ki [1]: < 100 nM | IC50 [2]: > 1000 nM

CC(C)[C@H]1c2nc(NS(=O)(=O)c3ccc(CC(=O)O)cc3)sc2CN1Cc1ccc(C#N)c(F)c1 [I-D2, (S)-2-(4-(N-(5-(4-cyano-3-fluorobenzyl)-4-isopropyl-5,6-dihydro-4H-pyrrolo[3,4-d]thiazol-2-yl)sulfamoyl)phenyl)acetic acid]
Ki [1]: < 100 nM | IC50 [2]: > 1000 nM

CC(C)[C@H]1c2nc(NC(=O)Cc3ccc(C#N)cc3)sc2CN1Cc1ccc(Cl)cc1 [I-E1, (S)—N-(5-(4-chlorobenzyl)-4-isopropyl-5,6-dihydro-4H-pyrrolo[3,4-d]thiazol-2-yl)-2-(4-cyanophenyl)acetamide]
Ki [1]: < 100 nM | IC50 [2]: 100 to 1000 nM

CCS(=O)(=O)c1ccc(CC(=O)Nc2nc3c(s2)CN(Cc2ccc(F)cc2)C3Cc2cccc(Br)c2)cc1 (stereo not drawn) [I-F1, N-(4-(3-bromobenzyl)-5-(4-fluorobenzyl)-5,6-dihydro-4H-pyrrolo[3,4-d]thiazol-2-yl)-2-(4-(ethylsulfonyl)phenyl)acetamide]
Ki [1]: < 100 nM | IC50 [2]: > 1000 nM

CC(C)[C@H]1c2nc(NC(=O)Cc3ccc(S(=O)(=O)NC4CC4)cc3)sc2CN1Cc1ccc(Cl)cc1 [I-G1, (S)—N-(5-(4-chlorobenzyl)-4-isopropyl-5,6-dihydro-4H-pyrrolo[3,4-d]thiazol-2-yl)-2-(4-(N-cyclopropylsulfamoyl)phenyl)acetamide]
Ki [1]: < 100 nM | IC50 [2]: < 100 nM
